Measurements as given in US11584775B2, “C4-modified oleanolic acid derivatives for inhibition of IL-17 and other uses” (REATA PHARMACEUTICALS, INC., priority 2015, dated 2023).
pIC50: −log10 of the molar value.

Legend:
hIL17 = assay: IL-17 release from differentiated primary human T-cells (IL-17A HTRF assay); type: cell-based; settings: inhibition of IL-17A levels; primary human CD4+ T cells differentiated into Th17 cells, 46-hour incubation
Description: D. IL-17 Release from Differentiated Primary Human T-Cells and Cell Viability
Primary human cryopreserved CD4+ T Cells (Lonza, donor #0000402103) were plated in Lymphocyte Growth Medium-3 (LGM-3, Lonza) according to the manufacturer's recommendations, and allowed to recover for approximately 3 hours at 37° C. with 5% CO2 in a humidified atmosphere. After the recovery step, cells were collected by centrifugation and re-plated in 96-well plates at a density of ˜140,000 cells per well in LGM-3 medium that contained DMSO (vehicle) or test compound (2-500 nM or 4-1000 nM concentration range). Triplicate wells were plated for each test condition. DMSO (final concentration ≤0.1%) was used as the vehicle. Immediately after plating, CD4+ T cells were activated by adding Dynabeads Human T-Activator CD3/CD28 (Life Technologies; bead-to-cell ratio of 1:2.5) and differentiated into Th17 cells by adding a mixture of the following cytokines: transforming growth factor-β (TGF-β, 5 ng/mL), IL-6 (20 ng/mL), IL-23 (20 ng/mL), and […] (10 ng/mL). Undifferentiated control cells received only cytokine IL-2 (50 ng/mL). All human recombinant cytokines were purchased from R&D Systems. Following a 46-hour incubation at 37° C. with 5% CO2 in a humidified atmosphere, the plates were centrifuged for 3 minutes at 250×g, and half of the supernatant was transferred to a new plate to be used in the IL-17A assay (see below). Cell viability was assessed in the original plate using the CyQuant Direct Assay (Life Technologies). CyQuant values from test compound samples were normalized to those from DMSO-treated samples. The concentration of IL-17A in the supernatant was measured using the Homogeneous Time-Resolved Fluorescence (HTRF) assay (Cisbio Bioassays) according to the manufacturer's protocol. The assay was performed at room temperature in low volume, solid white 384-well plates (Greiner Bio-One). Samples and standards (serially-diluted human recombinant IL-17A (0 to 5,000 pg/mL concentration range; Cisbio Bioassays) were incubated with the anti-human IL-17A antibody conjugate for 16 hours and fluorescence was measured using a Pherastar FS microplate reader (BMG Labtech) in the HTRF mode (excitation at 337 nm and emission at 665 nm and 620 nm). IL-17A concentrations were assessed in duplicate aliquots of supernatant from each well resulting in a total of six readings per test condition. The 665 nm/620 nm signal ratio was calculated and the concentration of IL-17A in each sample was determined by interpolation from the standard curve. IL-17A values from test compound samples were normalized to those from DMSO-treated samples. Data were analyzed using GraphPad Prism version 6.00 for Windows (GraphPad Software, La Jolla Calif. USA). A non-linear regression analysis with log (inhibitor) vs. normalized response using a variable slope was applied to fit the data and determine the IC50 values for inhibition of IL-17A levels and cell viability.

human RORγ = molecular target: T1, human RORγ (Homo sapiens, UniProt P51449); assay: RORγ assay (GAL4-RORγ hybrid luciferase reporter, inverse-agonist activity); type: cell-based; settings: GAL4-RORγ hybrid reporter cells, 23 hours
T1 sequence (P51449 269-508 limits assumed): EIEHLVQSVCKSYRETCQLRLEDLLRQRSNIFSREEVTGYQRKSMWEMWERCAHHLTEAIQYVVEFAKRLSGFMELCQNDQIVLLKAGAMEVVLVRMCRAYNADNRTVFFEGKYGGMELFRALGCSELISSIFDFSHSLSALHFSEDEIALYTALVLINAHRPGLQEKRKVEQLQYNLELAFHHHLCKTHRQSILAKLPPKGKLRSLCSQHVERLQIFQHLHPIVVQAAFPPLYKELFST
Description: C. RORγ Assay and Cell Viability
The RORγ assay system was purchased from Indigo Biosciences. This nuclear receptor assay utilizes a human cell line that has been engineered to express a hybrid form of the Human RAR-related Orphan Receptor Gamma (RORγ) at high levels. The N-terminal DNA binding domain (DBD) of the native RORγ receptor was substituted with the yeast GAL4-DBD to generate the GAL4-RORγ hybrid nuclear receptor. The reporter cell line is transfected with a plasmid that encodes the beetle luciferase gene under the control of the GAL4 upstream activating sequence (UAS). GAL4 binds to the UAS and increases transcription of downstream target genes. […] To assess the RORγ inverse-agonist activity of the test compounds, reporter cells were plated in white 96-well plates in triplicate and were treated with DMSO (vehicle) or test compound (concentration ranges of 0.4-200 nM or 2-1000 nM) at 37° C. with 5% CO2 in a humidified atmosphere for 23 hours. After this incubation, luciferin was added to the wells and luciferase activity was determined by measuring the luminescence signal using a BMG Pherastar microplate reader. Viability was determined using the Live Cell Multiplex Assay (Indigo Biosciences). Values from test compound samples were normalized to those from DMSO-treated samples. Data were analyzed using GraphPad Prism version 6.00 for Windows (GraphPad Software, La Jolla Calif. USA). A non-linear regression analysis with log (inhibitor) vs. normalized response using a variable slope was applied to fit the data and determine the IC50 values for inhibition of RORγ and cell viability.

NRF2 = assay: AREc32 luciferase reporter assay; type: cell-based, human; settings: EC2×: concentration required to increase GST ARE Luciferase reporter activity by 2-fold; AREc32 cells, 19 hours
Description: B. AREc32 Luciferase Reporter Assay
The AREc32 luciferase reporter assay allows for quantitative assessment of the endogenous activity of the Nrf2 transcription factor in cultured mammalian cells. AREc32 cells are derived from MCF-7 human breast carcinoma cells that were stably transfected with a reporter construct that contains the firefly luciferase gene located downstream of eight copies of the rat GSTA2 antioxidant response element (ARE) sequence (Wang et al., 2006; CXR Biosciences). Active NRF2 binds to the ARE sequences and increases expression of the firefly luciferase gene. To assess the NRF2-activating potential of the test compounds, AREc32 cells were plated in black 96-well plates at a density of 20,000 cells per well in triplicate in DMEM+10% FBS+0.8 mg/mL Geneticin and incubated at 37° C. with 5% CO2 in a humidified atmosphere. The next day, cells were treated with DMSO (vehicle) or test compound (concentration ranges of 0.4-200 nM or 2-1000 nM) for 19 hours. Luciferase activity was determined using the ONE-Glo Luciferase assay (Promega). The luminescence signal was measured on a BMG Pherastar microplate reader. The mean luminescence value from test compound-treated wells was normalized to that from DMSO-treated wells and was represented as fold-induction. Data were analyzed using GraphPad Prism version 6.00 for Windows, GraphPad Software, La Jolla Calif. USA. A non-linear regression curve with log (agonist) vs. response using a variable slope was used to fit the data. Where applicable, a maximum threshold value of 50-fold over DMSO was set. EC2× values were interpolated from the curve. EC2× corresponds to the concentration of test compound required to increase GST ARE Luciferase reporter activity by 2-fold.

[1] = tested on: IFNγ-induced Nitric Oxide production; assay: Nitric oxide production assay in RAW 264.7 mouse macrophages; type: cell-based; settings: RAW264.7, suppression of IFNγ-induced NO production normalized to cell viability (WST-1), RAW 264.7, 24 hours IFNγ
Description: A. Nitric Oxide Production Assay and Cell Viability
RAW 264.7 mouse macrophages were plated in 96-well plates at a density of 30,000 cells per well in triplicate in RPMI 1640+0.5% FBS and incubated at 37° C. with 5% CO2 in a humidified atmosphere. The next day, cells were pre-treated with DMSO (vehicle) or test compound (concentration ranges of 0.4-200 nM or 2-1000 nM) for 2 hours and then treated with recombinant mouse IFNγ (R&D Systems) for 24 hours. Nitric oxide concentration in media was determined using the Griess reagent system (Promega). Cell viability was determined using WST-1 reagent (Roche). Values from test compound samples were normalized to those from DMSO/IFNγ-treated samples. IC50 values were determined based on the suppression of IFNγ-induced Nitric Oxide production normalized to cell viability.

pIC50 (hIL17) | pIC50 (human RORγ) | Compound | EC2x: concentration giving 2-fold induction of ARE luciferase reporter (NRF2) | pIC50 [1]
7.77 | 6.86 | Cc1noc([C@]23CCC(C)(C)C[C@H]2[C@H]2C(=O)C=C4[C@@]5(C)C=C(C#N)C(=O)[C@@](C)(O)[C@@H]5CC[C@@]4(C)[C@]2(C)CC3)n1 [Compound T47, (4S,4aR,6aS,6bR,8aS,12aS,12bR,14bS)-4-hydroxy-4,6a,6b, 11,11,14b-hexamethyl-8a-(3-methyl-1,2,4-oxadiazol-5-yl)-3,13-dioxo-3,4,4a,5,6,6a,6b,7,8,8a,9,10,11,12,12a,12b,13,14b-octadecahydropicene-2-carbonitrile] | 79 nM | 7.45
7.30 | 6.59 | CC1(C)CC[C@]2(C(=O)NCC(F)(F)F)CC[C@]3(C)[C@H](C(=O)C=C4[C@@]5(C)C=C(C#N)C(=O)[C@@](C)(CO)[C@@H]5CC[C@]43C)[C@@H]2C1 [Compound T22, (4aS,6aR,6bS,8aR,9R,12aS,14aR,14bS)-11-cyano-9-(hydroxymethyl)-2,2,6a,6b,9,12a-hexamethyl-10,14-dioxo-N-(2,2,2-trifluoroethyl)-1,3,4,5,6,6a,6b,7,8,8a,9,10,12a,14,14a,14b-hexadecahydropicene-4a(2H)-carboxamide] | 103 nM | 7.87
6.88 | 6.53 | CCNC(=O)[C@]12CCC(C)(C)C[C@H]1[C@H]1C(=O)C=C3[C@@]4(C)C=C(C#N)C(=O)[C@@](C)(O)[C@@H]4CC[C@@]3(C)[C@]1(C)CC2 [Compound T26, (4aS,6aR,6bS,8aR,9S,12aS,14aR,14bS)-11-cyano-N-ethyl-9-hydroxy-2,2,6a,6b,9,12a-hexamethyl-10,14-dioxo-1,3,4,5,6,6a,6b,7,8,8a,9,10,12a,14,14a,14b-hexadecahydropicene-4a(2H)-carboxamide] | 463 nM | 6.43
7.82 | 6.63 | COC(=O)[C@]12CCC(C)(C)C[C@H]1[C@H]1C(=O)C=C3[C@@]4(C)C=C(C#N)C(=O)[C@@](C)(CCO)[C@@H]4CC[C@@]3(C)[C@]1(C)CC2 [Compound T19] | 76 nM | 7.76
7.48 | 6.69 | COC(=O)C[C@]1(C)C(=O)C(C#N)=C[C@]2(C)C3=CC(=O)[C@@H]4[C@@H]5CC(C)(C)CC[C@]5(C(=O)OC)CC[C@@]4(C)[C@]3(C)CC[C@H]21 [Compound T21, methyl (4aS,6aR,6bS,8aR,9S,12aS,14aR,14bS)-11-cyano-9-(2-methoxy-2-oxoethyl)-2,2,6a,6b,9,12a-hexamethyl-10,14-dioxo-1,3,4,5,6,6a,6b,7,8,8a,9,10,12a,14,14a,14b-hexadecahydropicene-4a(2H)-carboxylate] | 269 nM | 6.98
7.31 | 6.79 | CNC(=O)[C@]1(C)C(=O)C(C#N)=C[C@]2(C)C3=CC(=O)[C@@H]4[C@@H]5CC(C)(C)CC[C@]5(C(=O)OC)CC[C@@]4(C)[C@]3(C)CC[C@@H]12 [Compound T13, methyl (4aS,6aR,6bS,8aR,9S,12aS,14aR,14bS)-11-cyano-2,2,6a,6b,9,12a-hexamethyl-9-(methylcarbamoyl)-10,14-dioxo-1,3,4,5,6,6a,6b,7,8,8a,9,10,12a,14,14a,14b-hexadecahydropicene-4a(2H)-carboxylate] | 567 nM | 6.53

Compound | pIC50 (hIL17) | pIC50 (human RORγ) | EC2x: concentration giving 2-fold induction of ARE luciferase reporter (NRF2) | pIC50 [1]
COC(=O)[C@]12CCC(C)(C)C[C@H]1[C@H]1C(=O)C=C3[C@@]4(C)C=C(C#N)C(=O)[C@@](C)(CCO[Si](C)(C)C(C)(C)C)[C@@H]4CC[C@@]3(C)[C@]1(C)CC2 [Compound T18, methyl (4aS,6aR,6bS,8aR,9S,12aS,14aR,14bS)-9-(2-((tert-butyldimethylsilyl)oxy)ethyl)-11-cyano-2,2,6a,6b,9,12a-hexamethyl-10,14-dioxo-1,3,4,5,6,6a,6b,7,8,8a,9,10,12a,14,14a, 14b-hexadecahydropicene-4a(2H)-carboxylate] | 7.62 | 6.23 | 585 nM | 7.11
COC(=O)[C@]12CCC(C)(C)C[C@H]1[C@H]1C(=O)C=C3[C@@]4(C)C=C(C#N)C(=O)[C@@](C)(COC(C)=O)[C@@H]4CC[C@@]3(C)[C@]1(C)CC2 [Compound T8, methyl (4aS,6aR,6bS,8aR,9R,12aS,14aR,14bS)-9-(acetoxymethyl)-11-cyano-2,2,6a,6b,9,12a-hexamethyl-10,14-dioxo-1,3,4,5,6,6a,6b,7,8,8a,9,10,12a,14,14a,14b-hexadecahydropicene-4a(2H)-carboxylate] | 7.62 | 6.96 | 276 nM | 7.13
